In this test the target is T1, Recombinant human CBP containing the bromodomain (CBP-BD (1043-1159)) (Homo sapiens, UniProt Q92793).
T1 construct: Recombinant human CBP bromodomain (CBP-BD (1043-1159)); made in house; host or cells: E. coli BL21-CodonPlus (DE3), modified pET vector
The test is described as follows: CBP Alphascreen binding assay. The note with it: read-out: CREBBP (CBP) IC50. Here is the method: CBP Alphascreen Binding Assay
Binding of compounds of Formula (I) with CBP was assessed using Alphascreen™ binding assay. The inhibition of the interaction between the CBP bromodomain and its acetylated target protein was measured quantitatively using recombinant CBP, an acetylated Histone 3 peptide and AlphaScreen™ technology. In absence of inhibition of the CBP protein bound to AlphaScreen™ nickel chelate acceptor beads can interact with the acetylated Histone 3 peptide which was immobilized by the AlphaScreen™ Streptavidin coated beads. This interaction brings donor and acceptor beads in proximity. The close proximity allows the singlet oxygen produced by laser excitation of the donor beads to reach the acceptor beads and generate a luminescence signal. CBP inhibitors result in a decrease in the proximity signal through an inhibition of the CBP—acetylated peptide interaction.
Recombinant human CBP containing the bromodomain (CBP-BD (1043-1159)) was prepared and purified as described in protein expression and purification session. The peptide was human Histone H345-64K56Ac-Biotin (Anaspec CA, USA).
Protocol for CBP assay: All components are prepared in buffer composed of 50 mM HEPES pH 7.5, 50 mM NaCl, 0.01% BSA, 0.01% Triton X-100, 2 mM DTT. Test compounds and DMSO vehicle are diluted 1:50 in buffer and a 4 μL volume was transferred to an Alphaplate. 5.5 μL of CBP protein and 5.5 μL of peptide are added to wells containing 4 μL of various concentrations of test compounds of Formula (I) or DMSO vehicle in an Alphaplate (PerkinElmer GA, USA) and incubated for 1 hour at room temperature. 5 μL donor and acceptor bead mixture was then added with final concentrations of 7.5 μg/ml. 60 minutes after bead addition, Alpha signal was read on the Envision spectrometer (λEx 680 nm, λEm 520-620 nm). Final concentrations of bromodomain proteins and peptide are as shown below.
All data were normalized to the mean of 16 high and 16 low control wells on each plate. A four parameter curve fit of the following formula was then applied: Y=A+((B−A)/(1+((C/x)^D))) Where ‘A’ is the minimum, ‘B’ is the maximum, ‘C’ is the IC50 and ‘D’ is the Hill slope. Protein Expression and Purification
Recombinant human CBP bromodomain (CBP-BD (1043-1159)) was expressed in E. coli cells (in a modified pET vector) with an N-terminal six-His tag and purified using a combination of both IMAC (Ni-affinity) and size exclusion chromatography steps.
Recombinant CBP protein was expressed using the E. coli strain BL21-CodonPlus (DE3) (Agilent Technologies CA, USA). Cells were grown in Terrific Broth (TB) media to an OD600 of 0.92 at 37° C. at which temperature was reduced to 20° C., protein was induced with 1.0 mM isopropyl-β-D-thiogalactopyranoside (“IPTG”) for 20 hours and harvested by centrifugation at 8500×g for 20 minutes. Cells were re-suspended in 0.1M K2PO4 pH 8.0, 250 mM NaCl, 10% Glycerol, 0.75% NP-40, 25 mM Imidazole, with 0.2 mg/ml Lysozyme, 0.2 mM phenylmethanesulfonyl fluoride (“PMSF”), […] (“BME”), 25 μg/ml DNase I, incubated on ice for 30 minutes and lysed with a cell disruptor (MicroFluidics MA, USA). The lysate was clarified by centrifugation at 20,000×g for 1 hour. The protein was captured with Ni-NTA resin (Life Technologies, USA). Contaminating proteins were washed off with 40 mM HEPES pH 7.5, 500 mM NaCl, 5% Glycerol, 5 mM Imidazole, and 5 mM BME. Following 3× wash steps, protein was eluted using 400 mM Imidazole in 40 mM HEPES pH 7.5, 400 mM NaCl, and 5 mM BME. The protein was further purified using a size exclusion column (26/600 Superdex 200, GE Biosciences NJ, USA) in 40 mM HEPES pH 7.5, 250 mM NaCl, 5 mM BME. The protein was aliquoted and flash-frozen in liquid Nitrogen.
(In general: Alpha assays give light when donor and acceptor beads are brought close together.)

Consider 24 molecules from patent publication US11446287B2, “Compounds and methods for EP300 or CBP modulation and indications therefor” (Opna Immuno-Oncology SA, priority 2019, dated 2022).

Molecules are shown by their SMILES.

T1 sequence (Q92793 1081-1197): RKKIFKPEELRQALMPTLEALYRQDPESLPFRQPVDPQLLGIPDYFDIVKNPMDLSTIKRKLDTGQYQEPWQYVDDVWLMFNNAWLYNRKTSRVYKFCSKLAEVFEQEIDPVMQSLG

Regarding `Cc1ccc(S(=O)(=O)n2cc(-c3ccc(C(=O)O)cc3)c3cc(-c4c(C)noc4C)cnc32)cc1` [P-0006, 4-(5-(3,5-dimethylisoxazol-4-yl)-1-tosyl-1H-pyrrolo[2,3-b]pyridin-3-yl)benzoic acid], the IC50 lay in the range of 1000 to 8000 nM.

Turning to `Cc1noc(C)c1-c1cnc2c(c1)c(-c1ccc(C(=O)O)cc1)cn2C(c1ccccn1)C1CC1` (stereo not drawn) [P-0007, 4-(1-(cyclopropyl(pyridin-2-yl)methyl)-5-(3,5-dimethylisoxazol-4-yl)-1H-pyrrolo[2,3-b]pyridin-3-yl)benzoic acid], the IC50 lay in the range of 0.1 to 1000 nM.

`Cc1noc(C)c1-c1cnc2c(c1)c(-c1ccc(C(=O)O)cc1)cn2C(c1ccccn1)C1CCC1` (stereo not drawn) [P-0008, 4-(1-(cyclobutyl(pyridin-2-yl)methyl)-5-(3,5-dimethylisoxazol-4-yl)-1H-pyrrolo[2,3-b]pyridin-3-yl)benzoic acid]: the 50% inhibitory concentration (IC50) lay within 0.1 to 1000 nM.

Regarding `Cc1noc(C)c1-c1cnc2c(CC3CCC3)cn(-c3ccc(C(=O)O)cn3)c2c1` [P-0009, 6-(3-(cyclobutylmethyl)-6-(3,5-dimethylisoxazol-4-yl)-1H-pyrrolo[3,2-b]pyridin-1-yl)nicotinic acid], the IC50 was in the range of 0.1 to 1000 nM.

As to `Cc1noc(C)c1-c1cnc2c(CC3CC3)cn(-c3ccc(C(=O)O)cn3)c2c1` [P-0010, 6-(3-(cyclopropylmethyl)-6-(3,5-dimethylisoxazol-4-yl)-1H-pyrrolo[3,2-b]pyridin-1-yl)nicotinic acid], the IC50 is 0.1 to 1000 nM.

As for `Cc1noc(C)c1-c1cnc2c(Cc3ccccn3)cn(-c3ccc(C(=O)O)cn3)c2c1` [P-0011, 6-(6-(3,5-dimethylisoxazol-4-yl)-3-(pyridin-2-ylmethyl)-1H-pyrrolo[3,2-b]pyridin-1-yl)nicotinic acid], the IC50 was 1000 to 8000 nM.

With `Cc1noc(C)c1-c1cnc2c(c1)c(-c1ccc(C(=O)O)cc1)cn2C(c1ccccn1)c1ccccn1` [P-0012, 4-(1-(di(pyridin-2-yl)methyl)-5-(3,5-dimethylisoxazol-4-yl)-1H-pyrrolo[2,3-b]pyridin-3-yl)benzoic acid], the IC50 fell in the range of 0.1 to 1000 nM.

As for `Cc1noc(C)c1-c1cnc2c(c1)c(-c1ccc(C(=O)O)cc1F)cn2[C@@H](C)c1ccccn1` [P-0097, (S)-4-(5-(3,5-dimethylisoxazol-4-yl)-1-(1-(pyridin-2-yl)ethyl)-1H-pyrrolo[2,3-b]pyridin-3-yl)-3-fluorobenzoic acid], the half-inhibitory concentration (IC50) is 0.1 to 1000 nM.

Consider `COc1ccc(C(=O)O)cc1-n1cc(CC2CCC2)c2ncc(-c3c(C)noc3C)cc21` [P-0098, 3-(3-(cyclobutylmethyl)-6-(3,5-dimethylisoxazol-4-yl)-1H-pyrrolo[3,2-b]pyridin-1-yl)-4-methoxybenzoic acid], for which the IC50 lay within 0.1 to 1000 nM.

As for `Cc1noc(C)c1-c1cnc2c(C(=O)c3cccc(OC(F)F)c3)cn(-c3ccnc(C(=O)O)c3)c2c1` [P-0099, 4-(3-(3-(difluoromethoxy)benzoyl)-6-(3,5-dimethylisoxazol-4-yl)-1H-pyrrolo[3,2-b]pyridin-1-yl)picolinic acid], the IC50 lay in the range of 0.1 to 1000 nM.

On to `Cc1noc(C)c1-c1cnc2c(Cc3cccc(OC(F)F)c3)cn(-c3ccnc(C(=O)O)c3)c2c1` [P-0100, 4-(3-(3-(difluoromethoxy)benzyl)-6-(3,5-dimethylisoxazol-4-yl)-1H-pyrrolo[3,2-b]pyridin-1-yl)picolinic acid], for which the 50% inhibitory concentration (IC50) was 0.1 to 1000 nM.

For the molecule `Cc1noc(C)c1-c1cnc2c(c1)c(-c1cccc(C(=O)O)c1)cn2CC1CC(F)(F)C1` [P-0101, 3-(1-((3,3-difluorocyclobutyl)methyl)-5-(3,5-dimethylisoxazol-4-yl)-1H-pyrrolo[2,3-b]pyridin-3-yl)benzoic acid], the IC50 was in the range of 0.1 to 1000 nM.

`Cc1noc(C)c1-c1cnc2c(c1)c(-c1cccc(C(=O)O)c1)cn2CC1(C)COC1` [P-0102, 3-(5-(3,5-dimethylisoxazol-4-yl)-1-((3-methyloxetan-3-yl)methyl)-1H-pyrrolo[2,3-b]pyridin-3-yl)benzoic acid]: the 50% inhibitory concentration (IC50) was in the range of 1000 to 8000 nM.

In the case of `COc1cc(C(=O)O)cc(OC)c1-c1cn([C@@H](C)c2ccccn2)c2ncc(-c3c(C)noc3C)cc12` [P-0103, (S)-4-(5-(3,5-dimethylisoxazol-4-yl)-1-(1-(pyridin-2-yl)ethyl)-1H-pyrrolo[2,3-b]pyridin-3-yl)-3,5-dimethoxybenzoic acid], the IC50 lay in the range of 0.1 to 1000 nM.

With `Cc1noc(C)c1-c1cnc2c(CC3CCC3)cn(-c3ccc(C#N)c(C(=O)O)c3)c2c1` [P-0104, 2-cyano-5-(3-(cyclobutylmethyl)-6-(3,5-dimethylisoxazol-4-yl)-1H-pyrrolo[3,2-b]pyridin-1-yl)benzoic acid], the IC50 lay within 0.1 to 1000 nM.

In the case of `Cc1noc(C)c1-c1cnc2c(CC3CCC3)cn(-c3ccc(C(=O)O)c(C#N)c3)c2c1` [P-0105, 2-cyano-4-(3-(cyclobutylmethyl)-6-(3,5-dimethylisoxazol-4-yl)-1H-pyrrolo[3,2-b]pyridin-1-yl)benzoic acid], the IC50 is 0.1 to 1000 nM.

For `Cc1noc(C)c1-c1cnc2c(c1)c(-c1cncc(C(=O)O)n1)cn2[C@@H](C)c1ccccn1` [P-0106, (S)-6-(5-(3,5-dimethylisoxazol-4-yl)-1-(1-(pyridin-2-yl)ethyl)-1H-pyrrolo[2,3-b]pyridin-3-yl)pyrazine-2-carboxylic acid], the IC50 fell in the range of 1000 to 8000 nM.

As for `Cc1noc(C)c1-c1cnc2c(c1)c(-c1nccc(C(=O)O)n1)cn2[C@@H](C)c1ccccn1` [P-0107, (S)-2-(5-(3,5-dimethylisoxazol-4-yl)-1-(1-(pyridin-2-yl)ethyl)-1H-pyrrolo[2,3-b]pyridin-3-yl)pyrimidine-4-carboxylic acid], the IC50 was in the range of 1000 to 8000 nM.

As to `CCOc1cc(C(=O)O)cc(F)c1-n1cc(CC2CCC2)c2ncc(-c3c(C)noc3C)cc21` [P-0108, 4-(3-(cyclobutylmethyl)-6-(3,5-dimethylisoxazol-4-yl)-1H-pyrrolo[3,2-b]pyridin-1-yl)-3-ethoxy-5-fluorobenzoic acid], the IC50 is 0.1 to 1000 nM.

For the molecule `CCOc1cc(C(=O)O)cc(OCC)c1-n1cc(CC2CCC2)c2ncc(-c3c(C)noc3C)cc21` [P-0109, 4-(3-(cyclobutylmethyl)-6-(3,5-dimethylisoxazol-4-yl)-1H-pyrrolo[3,2-b]pyridin-1-yl)-3,5-diethoxybenzoic acid], the IC50 lay within 0.1 to 1000 nM.

For `Cc1noc(C)c1-c1cnc2c(CC3CCC3)cn(-c3ccc(C(=O)O)c4ccoc34)c2c1` [P-0110, 7-(3-(cyclobutylmethyl)-6-(3,5-dimethylisoxazol-4-yl)-1H-pyrrolo[3,2-b]pyridin-1-yl)benzofuran-4-carboxylic acid], the IC50 lay within 0.1 to 1000 nM.

With `Cc1noc(C)c1-c1cnc2c(CC3CCC3)cn(-c3c(OC(C)C)cc(C(=O)O)cc3OC(C)C)c2c1` [P-0111, 4-(3-(cyclobutylmethyl)-6-(3,5-dimethylisoxazol-4-yl)-1H-pyrrolo[3,2-b]pyridin-1-yl)-3,5-diisopropoxybenzoic acid], the IC50 lay within 0.1 to 1000 nM.

As for `Cc1noc(C)c1-c1cnc2c(c1)c(-c1ccc(C(=O)O)cc1OC(C)C)cn2[C@@H](C)c1ccccn1` [P-0112, (S)-4-(5-(3,5-dimethylisoxazol-4-yl)-1-(1-(pyridin-2-yl)ethyl)-1H-pyrrolo[2,3-b]pyridin-3-yl)-3-isopropoxybenzoic acid], the IC50 lay in the range of 0.1 to 1000 nM.

Consider `CCCOc1cc(C(=O)O)ccc1-c1cn([C@@H](C)c2ccccn2)c2ncc(-c3c(C)noc3C)cc12` [P-0113, (S)-4-(5-(3,5-dimethylisoxazol-4-yl)-1-(1-(pyridin-2-yl)ethyl)-1H-pyrrolo[2,3-b]pyridin-3-yl)-3-propoxybenzoic acid], for which the IC50 is 0.1 to 1000 nM.

The IC50 is the concentration that gives 50% inhibition.
